Reference: patent US20140065632A1, “MARKER GENE FOR DETECTION OF TUMOR PROMOTER, AND METHOD FOR DETECTION OF TUMOR PROMOTER” (priority 2007, published 2014)
Where two headings read alike, the source gives them in different places.

Key:
BALB/c 3T3 cells = system: BALB/c 3T3 cells; set-up: focus formation ability (intensity of the tumor-promoting activity): key to the marks not given beside the values
Orm1 = assay: Quantitative RT-PCR of Orm1 gene expression in the BALB/c 3T3 cell transformation assay; format: cell-based, mouse
[1] = Example 3, MCA-initiated BALB/c 3T3 cells, RNA 48 hours after addition of test substance, normalized by β-actin

Compound | Focus formation in the BALB/c 3T3 cell transformation assay (BALB/c 3T3 cells) | ability to form foci in the BALB/c 3T3 cell transformation assay (BALB/c 3T3 cells) | focus formation ability (intensity of the tumor-promoting activity) (BALB/c 3T3 cells) | Expression level of Orm1 (rates relative to the negative control) (Orm1) | focus formation in the BALB/c 3T3 cell transformation assay (BALB/c 3T3 cells) | ability to form foci in the Bhas cellular transformation assay (Bhas cells) | Expression level of Orm1 (rates relative to the negative control) (Orm1; [1])
O=[As]O [Sodium arsenite, sodium arsenite] | + | able to form foci | ++ |  |  |  | 
C=C1[C@@H](O)[C@@H]2O[C@]3(CC[C@H](/C=C/[C@@H](C)[C@@H]4CC(C)=C[C@@]5(O[C@H](C[C@@](C)(O)C(=O)O)CC[C@H]5O)O4)O3)CC[C@H]2O[C@@H]1[C@@H](O)C[C@H](C)[C@H]1O[C@@]2(CCCCO2)CC[C@H]1C [Okadaic acid, okadaic acid] | + | able to form foci | +++ |  |  |  | 
OC[C@@H](O)[C@@H](O)[C@H](O)[C@H](O)CO [D-mannitol] | − | unable to form foci |  |  |  |  | 
O=C1O[C@H]([C@@H](O)CO)C([O-])=C1O.[Na+] [Sodium ascorbate, sodium ascorbate] | − | unable to form foci |  |  |  |  | 
[Na+].[Na+].[Na+].[O]=[V]([O-])([O-])[O-] [Sodium orthovanadate, sodium orthovanadate] | + | able to form foci | +++ | 1.5 |  |  | 
CCCCCCCCCCCCCC(=O)O[C@@H]1[C@@H](C)[C@@]2(O)[C@@H](C=C(CO)C[C@]3(O)C(=O)C(C)=C[C@@H]23)[C@@H]2C(C)(C)[C@]12OC(C)=O [TPA, phorbol 12-myristate 13-acetate] | + | able to form foci | +++ | 2.3 | Significant focus formation was observed | able to form foci | 
CC(C)(C)c1cc(O)ccc1O [TBHQ, tert-butylhydroquinone] | − | unable to form foci |  |  |  | able to form foci | 
[Cl-].[Cl-].[Zn+2] [Zinc chloride, zinc chloride] | + | able to form foci | +++ | 3.4 | Significant focus formation was observed | able to form foci | 
COc1ccc(O)c(C(C)(C)C)c1 [butylhydroxyanisol] |  |  | ++ |  |  |  | 
C=C(C)[C@@]12O[C@@]3(c4ccccc4)O[C@@H]1[C@@H]1[C@@H]4O[C@]4(CO)[C@@H](O)[C@]4(O)C(=O)C(C)=C[C@H]4[C@@]1(O3)[C@H](C)[C@H]2OC(=O)/C=C/C=C/c1ccccc1 [Mezerein, mezerein] | + | able to form foci | +++ | 2.6 |  | able to form foci | 
O=[N+]([O-])c1cccc2ccccc12 [1-nitronaphthalene] | − | unable to form foci |  |  |  |  | 
insulin | + | able to form foci | ++ |  |  | able to form foci | 2.0
c1cc2cccc3c4cccc5cccc(c(c1)c23)c54 [Perylene, perylene] | − | unable to form foci |  |  |  | able to form foci | 
C[C@H](CCC(=O)O)[C@H]1CC[C@H]2[C@@H]3CC[C@@H]4C[C@H](O)CC[C@]4(C)[C@H]3CC[C@]12C [Lithocholic acid, lithocholic acid] | + | able to form foci |  |  |  | able to form foci | 
c1ccc2c(c1)ccc1c3ccccc3ccc21 [Chrysene, chrysene] | − | unable to form foci |  |  |  | able to form foci | 
CCC1(c2ccccc2)C(=O)NC(=O)NC1=O [Phenobarbital sodium, phenobarbital sodium] | + | able to form foci | ++ |  |  |  | 
c1ccc2cc3c(ccc4ccccc43)cc2c1 [Benz[a]anthracen, benz[a]anthracene] | − | unable to form foci |  |  |  |  | 
O=C1NS(=O)(=O)c2ccccc21.[Na] [Saccharin sodium, saccharin sodium] | + | able to form foci | ++ |  |  |  | 
CC(C)[C@@H]1CC[C@@H](C)C[C@H]1O (racemic) [dl-menthol, DL-menthol] | − | unable to form foci |  |  |  |  | 0.9
